Measured values reported in patent US9326506B2, “Preparation method, agricultural composition and applications of natural brassinolide analogs” (CHENGDU NEWSUN CROPSCIENCE CO., LTD, priority 2012, dated 2016).

Test system: rice
Assay: Low temperature assay on rice seedlings
Assay type: in vivo
How it was run: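 Nine-day-old etiolated rice seedlings (grown on water at 30 °C±2 °C, dark) immersed in brassinolide analogues at 1–0.0001 mg/L or pure water, held at 1–5 °C for 24 hr. Plant height, leaf area, root weight read at 3, 6, 9, 12 days; leaf and tiller number at 12 days.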

Structure (SMILES): CC(C)[C@H](C)[C@@H](O)[C@H](O)[C@@H](C)[C@H]1CCC2C3CC(=O)C4C[C@H](O)CC[C@]4(C)C3CC[C@@]21C (stereo partly shown) [BR4]
- Area of leaf (0.001 mg/l, 2 °C, 6 days): 11.6 cm^2
- Height (0.001 mg/l, 2 °C, 6 days): 7 cm
- Weight of root (0.001 mg/l, 2 °C, 6 days): 3.0 g
- Area of leaf (0.001 mg/l, 2 °C, 9 days): 12 cm^2
- Height (0.001 mg/l, 2 °C, 9 days): 7.1 cm
- Weight of root (0.001 mg/l, 2 °C, 9 days): 3 g
- Area of leaf (0.001 mg/l, 2 °C, 12 days): 13.1 cm^2
- Height (0.001 mg/l, 2 °C, 12 days): 7.3 cm
- Number of leaf (0.001 mg/l, 2 °C, 12 days): 3
- Number of tiller (0.001 mg/l, 2 °C, 12 days): 3
- Weight of root (0.001 mg/l, 2 °C, 12 days): 3.9 g
- Area of leaf (0.001 mg/l, 3 °C, 3 days): 10 cm^2
- Height (0.001 mg/l, 3 °C, 3 days): 7 cm
- Weight of root (0.001 mg/l, 3 °C, 3 days): 2.5 g
- Area of leaf (0.001 mg/l, 3 °C, 6 days): 12 cm^2
- Height (0.001 mg/l, 3 °C, 6 days): 7.2 cm
- Weight of root (0.001 mg/l, 3 °C, 6 days): 2.6 g
- Area of leaf (0.001 mg/l, 3 °C, 9 days): 12.2 cm^2
- Height (0.001 mg/l, 3 °C, 9 days): 7.4 cm
- Weight of root (0.001 mg/l, 3 °C, 9 days): 2.9 g
- Area of leaf (0.001 mg/l, 3 °C, 12 days): 13 cm^2
- Height (0.001 mg/l, 3 °C, 12 days): 7.5 cm
- Number of leaf (0.001 mg/l, 3 °C, 12 days): 3
- Number of tiller (0.001 mg/l, 3 °C, 12 days): 2
- Weight of root (0.001 mg/l, 3 °C, 12 days): 2.9 g
- Area of leaf (0.001 mg/l, 4 °C, 3 days): 10 cm^2
- Height (0.001 mg/l, 4 °C, 3 days): 7.1 cm
- Weight of root (0.001 mg/l, 4 °C, 3 days): 2.5 g
- Area of leaf (0.001 mg/l, 4 °C, 6 days): 12 cm^2
- Height (0.001 mg/l, 4 °C, 6 days): 7.3 cm
- Weight of root (0.001 mg/l, 4 °C, 6 days): 2.6 g
- Area of leaf (0.001 mg/l, 4 °C, 9 days): 13 cm^2
- Height (0.001 mg/l, 4 °C, 9 days): 7.4 cm
- Weight of root (0.001 mg/l, 4 °C, 9 days): 2.9 g
- Area of leaf (0.001 mg/l, 4 °C, 12 days): 13.1 cm^2
- Height (0.001 mg/l, 4 °C, 12 days): 7.5 cm
- Number of leaf (0.001 mg/l, 4 °C, 12 days): 3
- Number of tiller (0.001 mg/l, 4 °C, 12 days): 2
- Weight of root (0.001 mg/l, 4 °C, 12 days): 2.9 g
- Area of leaf (0.001 mg/l, 5 °C, 3 days): 10.2 cm^2
- Height (0.001 mg/l, 5 °C, 3 days): 7.2 cm
- Weight of root (0.001 mg/l, 5 °C, 3 days): 2.8 g
- Area of leaf (0.001 mg/l, 5 °C, 6 days): 14 cm^2
- Height (0.001 mg/l, 5 °C, 6 days): 7.4 cm
- Weight of root (0.001 mg/l, 5 °C, 6 days): 2.9 g
- Area of leaf (0.001 mg/l, 5 °C, 9 days): 15.4 cm^2
- Height (0.001 mg/l, 5 °C, 9 days): 7.4 cm
- Weight of root (0.001 mg/l, 5 °C, 9 days): 3.0 g
- Area of leaf (0.001 mg/l, 5 °C, 12 days): 16 cm^2
- Height (0.001 mg/l, 5 °C, 12 days): 7.9 cm
- Number of leaf (0.001 mg/l, 5 °C, 12 days): 3
- Number of tiller (0.001 mg/l, 5 °C, 12 days): 3
- Weight of root (0.001 mg/l, 5 °C, 12 days): 3.7 g
- Area of leaf (0.01 mg/l, 1 °C, 3 days): 9.2 cm^2
- Height (0.01 mg/l, 1 °C, 3 days): 6.7 cm
- Weight of root (0.01 mg/l, 1 °C, 3 days): 2.8 g
- Area of leaf (0.01 mg/l, 1 °C, 6 days): 11.6 cm^2
- Height (0.01 mg/l, 1 °C, 6 days): 7.1 cm
- Weight of root (0.01 mg/l, 1 °C, 6 days): 3.0 g
- Area of leaf (0.01 mg/l, 1 °C, 9 days): 12.4 cm^2
- Height (0.01 mg/l, 1 °C, 9 days): 7.4 cm
- Weight of root (0.01 mg/l, 1 °C, 9 days): 3.1 g
- Area of leaf (0.01 mg/l, 1 °C, 12 days): 13.6 cm^2
- Height (0.01 mg/l, 1 °C, 12 days): 7.5 cm
- Number of leaf (0.01 mg/l, 1 °C, 12 days): 3
- Number of tiller (0.01 mg/l, 1 °C, 12 days): 3
- Weight of root (0.01 mg/l, 1 °C, 12 days): 3.9 g
- Area of leaf (0.01 mg/l, 2 °C, 3 days): 10 cm^2
- Height (0.01 mg/l, 2 °C, 3 days): 7 cm
- Weight of root (0.01 mg/l, 2 °C, 3 days): 2.8 g
- Area of leaf (0.01 mg/l, 2 °C, 6 days): 11 cm^2
- Height (0.01 mg/l, 2 °C, 6 days): 7.2 cm
- Weight of root (0.01 mg/l, 2 °C, 6 days): 3 g
- Area of leaf (0.01 mg/l, 2 °C, 9 days): 12.5 cm^2
- Height (0.01 mg/l, 2 °C, 9 days): 7.4 cm
- Weight of root (0.01 mg/l, 2 °C, 9 days): 3 g
- Area of leaf (0.01 mg/l, 2 °C, 12 days): 13.4 cm^2
- Height (0.01 mg/l, 2 °C, 12 days): 7.5 cm
- Number of leaf (0.01 mg/l, 2 °C, 12 days): 3
- Number of tiller (0.01 mg/l, 2 °C, 12 days): 3
- Weight of root (0.01 mg/l, 2 °C, 12 days): 3.2 g
- Area of leaf (0.01 mg/l, 3 °C, 3 days): 10.2 cm^2
- Height (0.01 mg/l, 3 °C, 3 days): 7 cm
- Weight of root (0.01 mg/l, 3 °C, 3 days): 2.5 g
- Area of leaf (0.01 mg/l, 3 °C, 6 days): 12 cm^2
- Height (0.01 mg/l, 3 °C, 6 days): 7.3 cm
- Weight of root (0.01 mg/l, 3 °C, 6 days): 2.6 g
- Area of leaf (0.01 mg/l, 3 °C, 9 days): 12.1 cm^2
